Data as given in patent US8435588B2, “High-potency sweetener composition with an anti-inflammatory agent and compositions sweetened therewith” (The Coca-Cola Company, priority 2005, dated 2013).

Assays:
[1] = Sensory evaluation of sweetness linger by expert panel; type: in vivo; design: key: 0: no sweetness linger; 1: very slight sweetness linger; 2: slight sweetness linger; 3: moderate sweetness linger; 4: moderately high sweetness linger; 5: high sweetness linger; details: for Sweetness Linger rating (defined for controls of the protocol): sucrose, 500 ppm control sample, values defined as scale anchors; for sweetness linger: scale 0-5
Description: Sensory evaluation of the samples prepared in Example Set G was carried out under the following protocol, similar to that described hereinabove. In this test protocol, none of the samples were swallowed. All samples were expectorated and the mouth was rinsed with water after the tasting. Immediately upon sensing maximal sweetness, the sample was expectorated, the mouth was rinsed with water and the rate of sweetness decay (“Sweetness Linger”) was measured, where attention was focused on the sweetness 3-4 min after the water rinse. After sample tasting was complete, a salty oyster cracker was chewed followed by a water rinse, and at least 5 minutes followed before tasting the next sample. The sweetness linger was rated by a panel of experts in the sensory evaluation of foods and beverages using the following scale: 0=no sweetness linger, 1=very slight sweetness linger, 2=slight sweetness linger, 3=moderate sweetness linger, 4=moderately high sweetness linger, 5=high sweetness linger.
The “Sweetness Linger” rating for sucrose observed by this protocol is defined as 0. The Sweetness Linger of a 500 ppm of EBA control sample is defined as 5. Experimental samples were tasted by the same protocol, always allowing sufficient time between samples to ensure re-equilibration of the sensory system. Re-tasting of control samples during the course of the experiment was allowed and encouraged.
The comparison taste test was performed between two controls and addition of sweet taste improving additive on the onset and/or sweetness linger.
Sweet taste improving compositions were combined with a EBA solution to determine their effect on sweetness linger. Screening of the initial sample, or further dilutions, allowed identification of concentrations which were just above-threshold, herein defined as “near-threshold concentrations.” The near-threshold additive concentrations, a 6- to 100-fold higher additive concentration (depending on the off-taste intensity), and a mid-level additive concentration (halfway between the near-threshold and higher additive concentration) were evaluated to determine the effect on sweetness linger of a REBA solution.
Formulations of a 500 ppm EBA in a phosphoric acid solution (75%) at a pH of 2.5 with phosphoric acid or a pH of 3.1 with citric acid and potassium citrate were prepared prior to the addition of the additives at the three levels of concentration.
Sensory evaluation using the protocol described in Example Set G then was used to evaluate the sweetness linger of the REBA solutions.

[2] = Rate of dissolution of rebaudioside A polymorph and amorphous forms in H2O; type: physicochemical
[3] = type: physicochemical
Description: A solution of rebaudioside A (>97% pure by HPLC ) was prepared in double distilled water (12.5 gm in 50 mL, 25% concentration) by stirring the mixture at 40° C. for 5 minutes. An amorphous form of rebaudioside A was formed by immediately using the clear solution for spray drying with the Lab-Plant spray drier SD-04 instrument (Lab-Plant Ltd., West Yorkshire, U.K.). The solution was fed through the feed pump into the nozzle atomizer which atomized it into a spray of droplets with the help of a constant flow of nitrogen/air.

Compound	Sweetness Linger rating (defined for controls of the protocol) [1]	Rate of dissolution in H2O at 25° C. [2]	further results
OC[C@H]1O[C@@](CO)(O[C@H]2O[C@H](CO)[C@@H](O)[C@H](O)[C@H]2O)[C@@H](O)[C@@H]1O [sugar, sucrose, reference compound]	0	–	–
C=C1C[C@@]23CC[C@H]4[C@@](C)(CCC[C@@]4(C)C(=O)O[C@@H]4O[C@H](CO)[C@@H](O)[C@H](O)[C@H]4O)[C@@H]2CC[C@]1(O[C@@H]1O[C@H](CO)[C@@H](O)[C@H](O[C@@H]2O[C@H](CO)[C@@H](O)[C@H](O)[C@H]2O)[C@H]1O[C@@H]1O[C@H](CO)[C@@H](O)[C@H](O)[C@H]1O)C3 [Form 3, rebaudioside A]	–	High (>30%/5 %/5 minutes	–
C=C1C[C@@]23CC[C@H]4[C@@](C)(CCC[C@@]4(C)C(=O)O[C@@H]4O[C@H](CO)[C@@H](O)[C@H](O)[C@H]4O)[C@@H]2CC[C@]1(O[C@@H]1O[C@H](CO)[C@@H](O)[C@H](O[C@@H]2O[C@H](CO)[C@@H](O)[C@H](O)[C@H]2O)[C@H]1O[C@@H]1O[C@H](CO)[C@@H](O)[C@H](O)[C@H]1O)C3 [Form 4, rebaudioside A]	–	High (>35.0%/ %/5 minutes	solubility in water at room temperature [3]: > 35.0%
C=C1C[C@@]23CC[C@H]4[C@@](C)(CCC[C@@]4(C)C(=O)O[C@@H]4O[C@H](CO)[C@@H](O)[C@H](O)[C@H]4O)[C@@H]2CC[C@]1(O[C@@H]1O[C@H](CO)[C@@H](O)[C@H](O[C@@H]2O[C@H](CO)[C@@H](O)[C@H](O)[C@H]2O)[C@H]1O[C@@H]1O[C@H](CO)[C@@H](O)[C@H](O)[C@H]1O)C3 [Form 2, rebaudioside A]	–	Intermediate (<30%/ %/5 minutes	–
C=C1C[C@@]23CC[C@H]4[C@@](C)(CCC[C@@]4(C)C(=O)O[C@@H]4O[C@H](CO)[C@@H](O)[C@H](O)[C@H]4O)[C@@H]2CC[C@]1(O[C@@H]1O[C@H](CO)[C@@H](O)[C@H](O[C@@H]2O[C@H](CO)[C@@H](O)[C@H](O)[C@H]2O)[C@H]1O[C@@H]1O[C@H](CO)[C@@H](O)[C@H](O)[C@H]1O)C3 [REBA, rebaudioside A]	5	–	sweetness linger ([1]; Example Set G: 400 ppm REBA in citric acid/potassium citrate composition equivalent to diet lemon-lime beverage, sugar control 8 g in 100 ml citrate buffer): 5; sweetness linger ([1]; Example Set H: 500 ppm REBA (H41: 360 ppm) in carbon-treated water, phosphoric acid (75%) to pH 2.4-2.5, sugar control 10 g in 100 ml): 5
C=C1C[C@@]23CC[C@H]4[C@@](C)(CCC[C@@]4(C)C(=O)O[C@@H]4O[C@H](CO)[C@@H](O)[C@H](O)[C@H]4O)[C@@H]2CC[C@]1(O[C@@H]1O[C@H](CO)[C@@H](O)[C@H](O[C@@H]2O[C@H](CO)[C@@H](O)[C@H](O)[C@H]2O)[C@H]1O[C@@H]1O[C@H](CO)[C@@H](O)[C@H](O)[C@H]1O)C3 [Form 1, rebaudioside A]	–	Very low (<0.2%/ %/60 minutes	–
